What all share (format): cell-based
The target of one assay is KDR (Homo sapiens, UniProt P35968). The experiment in a line: KDR autophosphorylation ELISA in HUVEC cells. Conditions: Table 3 Cellular Activities, VEGF165-stimulated, phospho-KDR ELISA. On the set-up: endogenous in cells; host or cells: HUVEC (Lonza #C2519A). Here is the method: Human umbilical vein endothelial cells or HUVEC (Lonza #C2519A) were seeded at 2×10^4 cells/well onto 96-well plates (Corning #3904), in EGM-2 growth medium (Lonza #CC-3162) containing 1% Penicillin Streptomycin (Thermo Fisher #15140-122). HUVEC cells were incubated at 37° C., 5% CO2 for 24 h and then starved for 24 h in serum-free EBM-2 basal medium (Lonza #CC-3156) containing 1% Penicillin Streptomycin. Test compounds were serially diluted to produce an 8-point dose curve in fresh serum-free medium to a final concentration of 0.3% DMSO (vehicle) and added to the cells and incubated for 1 h. Cells were then stimulated with 100 ng/mL recombinant human VEGF165 (R&D Systems #293-VE-500) for 5 min, washed with cold PBS, and immediately lysed with 130 μL of cold 1× lysis buffer [20 mM Tris, 137 mM sodium chloride, 2 mM EDTA, 10% glycerol, 1% NP-40 alternative, 1 mM activated sodium orthovanadate, 1 mM PefaBloc SC (Sigma-Aldrich #11429868001), protease/phosphatase inhibitor tablet (Thermo Fisher #A32959)]. Lysates were collected and 100 μL/well added into the human phospho-KDR DuoSet IC ELISA (R&D Systems #DYC1766-2). Assay was performed according to manufacturer's instructions and sample phospho-KDR concentrations were extrapolated using human phospho-KDR control (R&D Systems #841421) as a standard. Positive control wells (100% activity) contained VEGF165-stimulated, DMSO-treated cell lysates. Negative control wells (0% activity) contained non-stimulated cell lysates. IC50 values were calculated by nonlinear regression analysis using a 4-parameter logistic curve fit in ActivityBase XE (IDBS).
Sequence of KDR (P35968 20-1356): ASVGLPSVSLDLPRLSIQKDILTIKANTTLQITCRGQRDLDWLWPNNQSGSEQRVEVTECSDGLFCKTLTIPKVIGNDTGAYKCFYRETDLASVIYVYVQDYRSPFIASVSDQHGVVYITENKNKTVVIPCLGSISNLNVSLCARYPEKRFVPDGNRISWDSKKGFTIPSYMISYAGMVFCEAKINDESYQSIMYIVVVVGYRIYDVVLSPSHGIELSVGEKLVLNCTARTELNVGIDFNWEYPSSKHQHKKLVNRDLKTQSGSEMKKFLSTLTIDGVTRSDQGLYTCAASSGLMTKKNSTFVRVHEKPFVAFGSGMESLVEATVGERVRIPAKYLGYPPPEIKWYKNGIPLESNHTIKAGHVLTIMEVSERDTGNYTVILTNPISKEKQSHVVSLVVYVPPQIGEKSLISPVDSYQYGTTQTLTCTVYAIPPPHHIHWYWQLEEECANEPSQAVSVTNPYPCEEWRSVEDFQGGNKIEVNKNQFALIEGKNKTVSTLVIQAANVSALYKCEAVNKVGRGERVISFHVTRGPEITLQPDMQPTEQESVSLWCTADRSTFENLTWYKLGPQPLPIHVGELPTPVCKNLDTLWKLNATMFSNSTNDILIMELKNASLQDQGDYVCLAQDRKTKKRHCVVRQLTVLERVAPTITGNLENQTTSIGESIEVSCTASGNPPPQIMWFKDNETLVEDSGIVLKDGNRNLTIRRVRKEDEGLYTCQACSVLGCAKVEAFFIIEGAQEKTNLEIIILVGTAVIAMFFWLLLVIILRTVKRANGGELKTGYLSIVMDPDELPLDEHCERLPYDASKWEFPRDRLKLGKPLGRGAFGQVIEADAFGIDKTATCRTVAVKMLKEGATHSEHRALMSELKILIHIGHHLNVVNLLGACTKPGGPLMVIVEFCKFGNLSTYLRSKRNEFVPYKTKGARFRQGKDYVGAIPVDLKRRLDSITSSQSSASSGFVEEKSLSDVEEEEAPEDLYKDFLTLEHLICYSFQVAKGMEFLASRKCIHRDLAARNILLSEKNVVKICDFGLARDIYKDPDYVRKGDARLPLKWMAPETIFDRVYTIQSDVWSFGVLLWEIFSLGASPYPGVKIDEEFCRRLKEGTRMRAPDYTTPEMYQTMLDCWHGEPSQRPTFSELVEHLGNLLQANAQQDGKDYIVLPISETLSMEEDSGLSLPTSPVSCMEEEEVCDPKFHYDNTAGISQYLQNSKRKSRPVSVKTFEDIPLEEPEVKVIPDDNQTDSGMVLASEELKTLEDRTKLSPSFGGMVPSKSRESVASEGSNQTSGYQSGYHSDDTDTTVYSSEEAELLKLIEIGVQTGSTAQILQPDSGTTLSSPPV

Another assay has as its target Met (Homo sapiens, UniProt P08581). The experiment in a line: Met autophosphorylation ELISA in PC-3 cells. On the set-up: endogenous in cells; host or cells: PC-3 prostate cancer cells (ATCC #CRL-1435). Particulars: Table 3 Cellular Activities, HGF-stimulated, phospho-Met ELISA, read-out: c-Met IC50. Here is the method: PC-3 prostate cancer cells (ATCC #CRL-1435) were seeded at 4×10^4 cells/well onto 24-well plates (Greiner #662165), in DMEM (Thermo Fisher #11995-040) containing 10% FBS (Thermo Fisher #26140-079), 1% MEM NEAA (Thermo Fisher #11140-050), 1% GlutaMax (Thermo Fisher #35050-061), and 1% Penicillin Streptomycin (Thermo Fisher #15140-122). PC-3 cells were incubated at 37° C., 5% CO2 for 24 h and then starved for 3 h in serum-free medium. Test compounds were serially diluted to produce an 8-point dose curve in fresh serum-free medium to a final concentration of 0.3% DMSO (vehicle) and added to the cells and incubated for 1 h. Cells were then stimulated with 100 ng/mL recombinant human HGF (R&D Systems #294-HG-250) for 10 min, washed with cold PBS, and immediately lysed with 130 μL of cold 1× lysis buffer [20 mM Tris, 137 mM sodium chloride, 2 mM EDTA, 10% glycerol, 1% NP-40 alternative, 1 mM activated sodium orthovanadate, 1 mM PefaBloc SC (Sigma-Aldrich #11429868001), protease/phosphatase inhibitor tablet (Thermo Fisher #A32959)]. Lysates were clarified by centrifugation and 100 μL/well added into the PathScan phospho-Met (panTyr) Sandwich ELISA (Cell Signaling Technology #7333). Assay was performed according to manufacturer's instructions. Positive control wells (100% activity) contained HGF-stimulated, DMSO-treated cell lysates. Negative control wells (0% activity) contained HGF-stimulated, reference inhibitor-treated cell lysates. IC50 values were calculated by nonlinear regression analysis using a 4-parameter logistic curve fit in ActivityBase XE (IDBS).
In general terms: ELISA stands for enzyme-linked immunosorbent assay.

A further assay has as its target T1, Mer (Homo sapiens, UniProt Q12866).
T1 construct: host or cells: 293A cells (Thermo Fisher #R70507)
T1 sequence (Q12866 21-999): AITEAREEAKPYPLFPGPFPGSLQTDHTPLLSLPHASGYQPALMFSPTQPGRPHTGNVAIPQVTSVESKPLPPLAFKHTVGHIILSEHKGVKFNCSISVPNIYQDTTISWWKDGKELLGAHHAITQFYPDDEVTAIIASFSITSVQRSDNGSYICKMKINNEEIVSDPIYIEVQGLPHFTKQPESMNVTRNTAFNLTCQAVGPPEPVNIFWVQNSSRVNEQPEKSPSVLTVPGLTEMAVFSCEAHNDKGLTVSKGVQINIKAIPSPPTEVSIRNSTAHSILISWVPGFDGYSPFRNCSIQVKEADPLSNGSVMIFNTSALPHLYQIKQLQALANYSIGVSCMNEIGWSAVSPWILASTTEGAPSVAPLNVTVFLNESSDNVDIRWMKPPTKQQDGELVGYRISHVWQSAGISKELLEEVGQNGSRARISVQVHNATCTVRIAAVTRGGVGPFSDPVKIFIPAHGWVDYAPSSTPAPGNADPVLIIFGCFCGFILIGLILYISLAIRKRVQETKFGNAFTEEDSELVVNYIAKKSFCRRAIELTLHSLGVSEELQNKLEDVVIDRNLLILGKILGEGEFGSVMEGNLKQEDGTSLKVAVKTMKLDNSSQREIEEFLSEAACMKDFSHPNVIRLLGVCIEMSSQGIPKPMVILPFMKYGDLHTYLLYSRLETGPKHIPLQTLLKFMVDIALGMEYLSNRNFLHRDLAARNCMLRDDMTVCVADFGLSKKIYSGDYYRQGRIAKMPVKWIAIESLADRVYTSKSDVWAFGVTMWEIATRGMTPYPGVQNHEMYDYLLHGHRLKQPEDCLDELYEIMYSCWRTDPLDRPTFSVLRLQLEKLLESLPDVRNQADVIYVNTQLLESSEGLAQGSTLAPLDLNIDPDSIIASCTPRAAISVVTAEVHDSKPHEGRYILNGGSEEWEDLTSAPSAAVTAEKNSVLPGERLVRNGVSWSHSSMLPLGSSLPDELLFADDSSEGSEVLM
In words: Mer autophosphorylation ELISA in transient transfected 293A cells. Conditions: Table 3 Cellular Activities; MERTK-transfected 293A cells, phospho-Mer ELISA. The protocol:
293A cells (Thermo Fisher #R70507) were seeded at 1.5×10^6 cells/well onto 100 mm dish (Greiner #664169), in DMEM (Thermo Fisher #11995-040) containing 10% FBS (Thermo Fisher #26140-079), 1% MEM NEAA (Thermo Fisher #11140-050), 1% GlutaMax (Thermo Fisher #35050-061), and 1% Penicillin Streptomycin (Thermo Fisher #15140-122). 293A cells were incubated at 37° C., 5% CO2 for 24 h and then transfected with 6μg MERTK DNA (Genecopoeia #EX-Z8208-M02) using TransIT LT1 transfection reagent (Mirus-Bio #MIR2305). After 24 h incubation, the transfected 293A cells were seeded at 1×10^5 cells/well onto 96-well plates (Corning #3904) in DMEM growth medium overnight. Test compounds were serially diluted to produce an 8-point dose curve in fresh serum-free medium to a final concentration of 0.3% DMSO (vehicle) and added to the cells and incubated for 1 h. Cells were then immediately lysed with 150 μL of cold 1× lysis buffer […], 137 mM sodium chloride, 2 mM EDTA, 10% glycerol, 1% NP-40 alternative, 1 mM activated sodium orthovanadate, 1 mM PefaBloc SC (Sigma-Aldrich #11429868001), protease/phosphatase inhibitor tablet (Thermo Fisher #A32959)]. Lysates were clarified by centrifugation and 50 μL/well added into the human phospho-Mer DuoSet IC ELISA (R&D Systems #DYC2579-2). Assay was performed according to manufacturer's instructions and sample phospho-Mer concentrations were extrapolated using human phospho-Mer control (R&D Systems #841793) as a standard. Positive control wells (100% activity) contained DMSO-treated cell lysates. Negative control wells (0% activity) contained reference inhibitor-treated cell lysates. IC50 values were calculated by nonlinear regression analysis using a 4-parameter logistic curve fit in ActivityBase XE (IDBS).

In US20230151003A1, “COMPOUNDS AND METHODS OF USE” (Exelixis, Inc., priority 2020, published 2023) one finds IC50 data, which are given here for six compounds.

Sequence of Met (P08581 25-1390): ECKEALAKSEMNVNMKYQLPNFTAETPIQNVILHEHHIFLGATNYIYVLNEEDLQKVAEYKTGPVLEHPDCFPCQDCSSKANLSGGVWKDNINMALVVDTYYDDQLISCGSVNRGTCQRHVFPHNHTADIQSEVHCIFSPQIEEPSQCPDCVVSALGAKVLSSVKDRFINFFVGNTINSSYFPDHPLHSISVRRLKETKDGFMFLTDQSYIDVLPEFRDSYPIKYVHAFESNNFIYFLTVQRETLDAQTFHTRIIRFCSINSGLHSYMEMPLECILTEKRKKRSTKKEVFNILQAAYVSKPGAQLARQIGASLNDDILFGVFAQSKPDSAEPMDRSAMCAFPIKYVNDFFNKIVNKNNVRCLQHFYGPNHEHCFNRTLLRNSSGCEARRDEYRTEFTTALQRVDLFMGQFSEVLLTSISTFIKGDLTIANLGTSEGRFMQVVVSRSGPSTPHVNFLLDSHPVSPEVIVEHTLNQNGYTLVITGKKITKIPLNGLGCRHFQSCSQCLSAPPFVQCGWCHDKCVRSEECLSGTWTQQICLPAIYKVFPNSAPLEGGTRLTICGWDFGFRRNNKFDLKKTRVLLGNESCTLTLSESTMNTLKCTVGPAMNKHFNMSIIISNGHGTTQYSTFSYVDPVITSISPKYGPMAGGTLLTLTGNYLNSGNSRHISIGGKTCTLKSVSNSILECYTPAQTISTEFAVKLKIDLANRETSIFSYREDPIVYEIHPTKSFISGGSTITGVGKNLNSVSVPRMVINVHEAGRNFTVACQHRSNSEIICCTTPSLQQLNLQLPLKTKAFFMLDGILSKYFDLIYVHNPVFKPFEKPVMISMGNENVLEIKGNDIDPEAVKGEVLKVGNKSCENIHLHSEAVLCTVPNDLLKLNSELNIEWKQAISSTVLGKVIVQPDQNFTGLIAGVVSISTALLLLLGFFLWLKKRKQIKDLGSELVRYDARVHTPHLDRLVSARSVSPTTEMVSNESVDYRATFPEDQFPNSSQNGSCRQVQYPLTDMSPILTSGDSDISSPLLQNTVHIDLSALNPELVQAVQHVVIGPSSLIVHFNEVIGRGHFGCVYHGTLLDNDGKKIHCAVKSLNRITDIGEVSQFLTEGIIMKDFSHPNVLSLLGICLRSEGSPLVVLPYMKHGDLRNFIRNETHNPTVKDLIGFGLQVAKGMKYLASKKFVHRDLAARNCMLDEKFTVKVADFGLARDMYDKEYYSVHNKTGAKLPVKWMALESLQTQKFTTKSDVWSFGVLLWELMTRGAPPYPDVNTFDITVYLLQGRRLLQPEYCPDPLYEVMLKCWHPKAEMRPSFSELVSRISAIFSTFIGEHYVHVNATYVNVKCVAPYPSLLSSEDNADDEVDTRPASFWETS

Consider `COc1cc2nccc(Oc3ccc(NC(=O)c4c(C)ncc(-c5ccc(C=O)o5)c4O)cc3F)c2nc1OC` [Compound 121, N-[4-[(6,7-Dimethoxy-1,5-naphthyridin-4-yl)oxy]-3-fluorophenyl]-5-(5-formylfuran-2-yl)-4-hydroxy-2-methylpyridine-3-carboxamide], for which the IC50 (in general, the midpoint of a concentration-inhibition curve) was at most 0.1 µM against KDR, 0.1 to 0.3 µM on Met and at most 0.1 µM against Mer.

Consider `COc1cc2nccc(Oc3ccc(NC(=O)c4c(C)n(CC(F)F)cc(-c5ccco5)c4=O)cc3F)c2nc1OC` [Compound 275, 1-(2,2-Difluoroethyl)-N-[4-[(6,7-dimethoxy-1,5-naphthyridin-4-yl)oxy]-3-fluorophenyl]-5-(furan-2-yl)-2-methyl-4-oxopyridine-3-carboxamide], for which the IC50 on KDR was 0.3 to 1 µM; on Met, at most 0.1 µM; against Mer, at most 0.1 µM.

With `COc1cc2nccc(Oc3ccc(NC(=O)c4c(C)ncc(-c5ccc(C)s5)c4O)cc3F)c2nc1OC` [Compound 124, N-[4-[(6,7-Dimethoxy-1,5-naphthyridin-4-yl)oxy]-3-fluorophenyl]-4-hydroxy-2-methyl-5-(5-methylthiophen-2-yl)pyridine-3-carboxamide], the IC50 at KDR, at Met and against Mer was at most 0.1 µM throughout.

With `COCc1nc(C)c(-c2cccc(C)n2)c(O)c1C(=O)Nc1ccc(Oc2ccnc3cc(OC)c(OC)nc23)c(F)c1` [Compound 197, N-[4-[(6,7-Dimethoxy-1,5-naphthyridin-4-yl)oxy]-3-fluorophenyl]-4-hydroxy-2-(methoxymethyl)-6-methyl-5-(6-methylpyridin-2-yl)pyridine-3-carboxamide], the IC50 at KDR, on Met and against Mer was at most 0.1 µM throughout.

With `COCCOc1cnc2c(Oc3ccc(NC(=O)c4c(C)n(C)c(C)c(-c5coc6ccccc56)c4=O)cc3F)ccnc2c1` [Compound 265, 5-(1-Benzofuran-3-yl)-N-[3-fluoro-4-[[7-(2-methoxyethoxy)-1,5-naphthyridin-4-yl]oxy]phenyl]-1,2,6-trimethyl-4-oxopyridine-3-carboxamide], the IC50 on KDR, at Met and against Mer was 0.3 to 1 µM each time.

For the compound `COc1cc2nccc(Oc3ccc(NC(=O)c4c(C)ncc(-c5ccoc5)c4O)cc3F)c2nc1OC` [Compound 122, N-[4-[(6,7-Dimethoxy-1,5-naphthyridin-4-yl)oxy]-3-fluorophenyl]-5-(furan-3-yl)-4-hydroxy-2-methylpyridine-3-carboxamide], the IC50 at KDR, on Met and at Mer was at most 0.1 µM throughout.
